{
  "source": "patent US20230087361A1",
  "about": "“USE OF DIANTHRONE COMPOUND IN PREPARATION OF MEDICAMENT FOR PREVENTION AND/OR TREATMENT OF MYOCARDIAL ISCHEMIC DISEASE AND RELATED DISEASE THEREOF” (National Institutes for Food and Drug Control, priority 2021, published 2023)",
  "key": {"[1]": {"test_system": "mice with ISO-induced myocardial ischemia", "test": "Serum myocardial enzyme CK-MB (ELISA) in mice with ISO-induced myocardial ischemia", "type": "in vivo, Kunming mice", "conditions": "ISO model mice; dianthrone 10 mg/kg intragastric or diltiazem 20 mg/kg intraperitoneal once a day for 10 days; serum 2 h after final ISO; n=7-10", "method": "(§1) Male Kunming mice were acclimatized and randomly divided into four groups: a blank control group, an ISO model group, an ISO+diltiazem 20 mg.kg^1 positive control group, and an ISO+dianthrone 10 mgkgi group. Mice in the dianthrone group were intragastrically given the corresponding dose of dianthrone once a day, those in the diltiazem group were intraperitoneally given once a day, and those in the blank control group and the model group were given the same dose of solvent (both of which were 10 mL. kg) for 10 consecutive days. On day 4 of administration, the mice in each group were injected subcutaneously with 40 mg.kg^1 ISO once; the concentration of ISO subcutaneous injection was adjusted to 20 mg.kg^- on days 5 to 10 of administration. All mice were modeled at 2 h after administration. On the final day, the animals were treated at 2 h after ISO administration and modeling. Animal weights were recorded during the experiment. […]\n(§2) Assay for biomarker for myocardial injury and myocardial enzyme: The blood was drawn from the orbit of the mouse, let stand at room temperature for 2 h, and centrifuged at 3,500 rpm for 20 min to separate the serum. The serum levels of CK-MB and cTn-T were detected according to the ELISA kit instructions."}, "[2]": {"test_system": "mice with ISO-induced myocardial ischemia", "test": "Serum biomarker for myocardial injury cTn-T (ELISA) in mice with ISO-induced myocardial ischemia", "type": "in vivo, Kunming mice", "conditions": "ISO model mice; dianthrone 10 mg/kg intragastric or diltiazem 20 mg/kg intraperitoneal once a day for 10 days; serum 2 h after final ISO; n=7-10", "method": "as §1, §2"}},
  "data": [
    {"smiles": "COc1ccc([C@@H]2Sc3ccccc3N(CCN(C)C)C(=O)[C@@H]2OC(C)=O)cc1", "note": "[Diltiazem, diltiazem]", "values": [
      {"measurement": "CK-MB (serum)", "setting": "[1]", "value": "7.11 ± 1.63", "unit": "ng/mL"},
      {"measurement": "cTn-T (serum)", "setting": "[2]", "value": "273.93 ± 36.17", "unit": "ng/L"}
    ]}
  ]
}
